Experimental data: US6887847B2, “Virus derived antimicrobial peptides” (University of Pittsburgh, priority 2001, dated 2005)
In brackets after ≈: the same amount, converted by molar mass. Like-named read-outs stand apart in the source and are kept apart here. Residues, ends and D or L forms follow the SMILES beside them. No end group written: not given here.

Key:
Staphylococcus aureus = experiment: Bacterial lysis (broth dilution) assay, MBC; format: cell-based
From the text: (§1) The assays for growth inhibition of a microbial target can be used to derive a minimum bactericidal concentration (MBC) value for the peptide, i.e., the concentration of peptide required to kill 99.9% of the microbial sample being tested. This value is well known to those in the art as representative of the effectiveness of a particular antimicrobial agent (e.g., an antibiotic) against a particular organism or group of organisms. In assays to detect the MBC of a peptide, growth inhibition of a bacterial population also can be measured with reference to the number of colony forming units (cfu) after exposure to a peptide relative to a control experiment without a peptide.
(§2) Bacterial lysis assay. Bacterial lysis assays were conducted in a manner similar to that described previously (Lehrer, R. I., M. E. Selsted, D. Szklarek, and F. J. 1983. Infect. Immun. 42: 10-4, 1983; Miller, M. A., R. F. Garry, J. M. Jaynes, and R. C. Montelaro, AIDS Res Hum Retroviruses 7: 511-519, 1991). Bacterial suspensions were cultured in Luria-Bertani Broth to mid-log growth phase and washed by two cycles of centrifugation and suspension in 10 mM phosphate buffer. The Abs600 of the suspension was adjusted with 10 mM phosphate buffer such that, upon dilution, 5-10×10^5 cfu/mL would be treated in the assay. Bacteria were incubated for 1 h with two-fold dilutions of peptides (100 μM to 100 nM) in 96-well plates using 10 mM phosphate buffer, pH 7.2, as a diluent. Ten-fold dilutions of bacteria were performed to 1:1000; a 100 μl aliquot from each condition was spread on the surface of tryptic soy agar plates (Difco, Detroit, Mich.) which were incubated overnight. Colonies of surviving bacteria (cfu, colony-forming units) were counted and compared to untreated controls to determine the amount of peptide-induced killing under each condition. Log killing is defined as the log of the ratio of cfu present before and after treatment with peptide. The minimal bactericidal concentration, MBC, is the peptide concentration at which 99.9% (three log) killing is achieved (Pearson et al., Antimicrob. Agents Chemother. 18: 699-708, 1980).
(§3) A limitation of many host-derived antimicrobial peptides is their decreased activity at physiologic (150 mM) NaCl concentration. See Friedrich et al., Antimicrobial Agents and Chemotherapy 43:1542-1548. The peptides WLSA-5 (SEQ ID NO:3) and LL37 were tested against the two index strains at physiologic NaCl. […] The activity of eLLPs and LBUs of this invention were compared to an expanded list of clinical bacterial isolates. These are summarized in Table 2 by comparing their MBCs in phosphate buffer alone (low salt) and phosphate buffer containing 150 mM NaCl (physiologic conditions). Inspection of this table would lead one skilled in the art to conclude that the activity of eLLPs and LBUs compare favorably to the host derived antimicrobial peptides as it relates to the spectrum and potency of antimicrobial activity.

Pseudomonas aeruginosa = format: cell-based
From the text: as §1, §2, §3

[1] = tested on: differentiated primary human airway epithelial cells; experiment: Cystic fibrosis cell culture model: transepithelial resistance; format: cell-based; settings: compared with LL-37
Protocol: Preparation of eukaryotic cells. Differentiated primary cell cultures of human bronchial epithelial (HBE) cells (CF and non-CF) on an air-liquid interface were prepared in antibiotic free media. See Zabner, J. et al., 1996, J Virol. 70:6994-7003. These filters were incubated with P. aeruginosa followed by washing to remove non-adherent bacteria. Individual filters were next exposed to peptide at increasing concentrations. In order to release viable bacteria, trypsin/EDTA was added and these preparations were plated on standard bacteriologic media to quantify bacterial survival. Similarly prepared cells were monitored for peptide toxicity by measuring transepithelial resistance. The advantage of this model is that it can measure the selective toxicity of peptide for bacterium versus host cells under identical conditions.
Based on above in vitro findings, WLSA-5 (SEQ ID NO:3) was tested in a scenario that more accurately assessed its selective toxicity. For this assay, a cell culture model of bacterial adherence was established that utilized differentiated primary human airway epithelial cells. […] The ability of peptide to kill bacteria is monitored as a function of viable bacteria associated with the epithelial cells after peptide exposure. […]

[2] = tested on: Methicillin Resistant S. aureus; format: cell-based, Staphylococcus aureus; settings: 0 mM NaCl (phosphate buffer, low salt)
From the text: as §1
Bacterial lysis assay. Bacterial lysis assays were conducted in a manner similar to that described previously (Lehrer, R. I., M. E. Selsted, D. Szklarek, and F. J. 1983. Infect. Immun. 42: 10-4, 1983; Miller, M. A., R. F. Garry, J. M. Jaynes, and R. C. Montelaro, AIDS Res Hum Retroviruses 7: 511-519, 1991). Bacterial suspensions were cultured in Luria-Bertani Broth to mid-log growth phase and washed by two cycles of centrifugation and suspension in 10 mM phosphate buffer. […] Colonies of surviving bacteria (cfu, colony-forming units) were counted and compared to untreated controls to determine the amount of peptide-induced killing under each condition. […]

[3] = 0 mM NaCl (phosphate buffer, low salt)

Molecule CC(C)[C@H](NC(=O)[C@H](CCCNC(=N)N)NC(=O)[C@H](CCCNC(=N)N)NC(=O)[C@@H](NC(=O)[C@@H](NC(=O)[C@H](CCCNC(=N)N)NC(=O)[C@@H](N)CCCNC(=N)N)C(C)C)C(C)C)C(=O)N[C@@H](CCCNC(=N)N)C(=O)N[C@@H](CCCNC(=N)N)C(=O)N[C@H](C(=O)N[C@H](C(=O)N[C@@H](CCCNC(=N)N)C(=O)N[C@@H](CCCNC(=N)N)C(=O)N[C@H](C(=O)N[C@H](C(=O)N[C@@H](CCCNC(=N)N)C(=O)N[C@H](C(=O)N[C@H](C(=O)N[C@@H](CCCNC(=N)N)C(=O)N[C@@H](CCCNC(=N)N)C(=O)N[C@H](C(=O)N[C@H](C(=O)N[C@@H](CCCNC(=N)N)C(=O)N[C@@H](CCCNC(=N)N)C(=O)O)C(C)C)C(C)C)C(C)C)C(C)C)C(C)C)C(C)C)C(C)C)C(C)C [LBU-2] (H-RRVVRRVRRVVRRVVRVVRRVVRR-OH) has an MBC (Staphylococcus aureus; [3]) of 1500 nM.
CC[C@H](C)[C@H](NC(=O)[C@H](C)NC(=O)[C@H](CCCNC(=N)N)NC(=O)[C@H](CS)NC(=O)[C@H](Cc1c[nH]c2ccccc12)NC(=O)[C@H](CCCNC(=N)N)NC(=O)[C@H](CCC(N)=O)NC(=O)[C@@H](NC(=O)[C@@H](NC(=O)[C@H](CCCNC(=N)N)NC(=O)[C@@H](NC(=O)[C@H](Cc1c[nH]c2ccccc12)NC(=O)[C@@H](N)CCCNC(=N)N)[C@@H](C)CC)C(C)C)C(C)C)C(=O)N[C@@H](CCCNC(=N)N)C(=O)N[C@@H](Cc1c[nH]cn1)C(=O)N[C@H](C(=O)N[C@@H](Cc1c[nH]c2ccccc12)C(=O)N[C@@H](CCCNC(=N)N)C(=O)N[C@@H](CCCNC(=N)N)C(=O)N[C@H](C(=O)N[C@@H](CCCNC(=N)N)C(=O)N[C@@H](CCC(N)=O)C(=O)NCC(=O)N[C@@H](CC(C)C)C(=O)N[C@@H](CCCNC(=N)N)C(=O)N[C@@H](CCCNC(=N)N)C(=O)N[C@@H](Cc1c[nH]c2ccccc12)C(=O)N[C@@H](CC(C)C)C(=O)N[C@@H](CCCNC(=N)N)C(=O)N[C@H](C(=O)N[C@H](C(=O)O)C(C)C)C(C)C)[C@@H](C)CC)[C@@H](C)CC [WLSA-5] (H-RWIRVVQRWCRAIRHIWRRIRQGLRRWLRVV-OH) was tested, and the MBC (Pseudomonas aeruginosa; [3]) was 1 µM, the MBC (Pseudomonas aeruginosa; 150 mM NaCl (physiologic)) was 1 µM (≈ 4.18 µg/mL) and the “effect on transepithelial resistance” value [1] was “transient and not significantly different from LL-37”. For the same molecule, the MBC (Staphylococcus aureus; [3]) was 1000 nM, the MBC (Staphylococcus aureus; 150 mM NaCl (physiologic)) was 1000 nM (≈ 4.18 µg/mL) and the MBC [2] was 0.15 µM.
With CC[C@H](C)[C@H](NC(=O)[C@H](C)NC(=O)[C@H](CCCNC(=N)N)NC(=O)[C@H](CS)NC(=O)[C@H](C)NC(=O)[C@H](CCCNC(=N)N)NC(=O)[C@H](CCC(N)=O)NC(=O)[C@@H](NC(=O)[C@@H](NC(=O)[C@H](CCCNC(=N)N)NC(=O)[C@@H](NC(=O)[C@@H](NC(=O)[C@@H](N)CCCNC(=N)N)C(C)C)[C@@H](C)CC)C(C)C)C(C)C)C(=O)N[C@@H](CCCNC(=N)N)C(=O)N[C@@H](Cc1c[nH]cn1)C(=O)N[C@H](C(=O)N[C@H](C(=O)N[C@@H](CCCNC(=N)N)C(=O)N[C@@H](CCCNC(=N)N)C(=O)N[C@H](C(=O)N[C@@H](CCCNC(=N)N)C(=O)N[C@@H](CCC(N)=O)C(=O)NCC(=O)N[C@@H](CC(C)C)C(=O)N[C@@H](CCCNC(=N)N)C(=O)N[C@@H](CCCNC(=N)N)C(=O)N[C@H](C(=O)N[C@@H](CC(C)C)C(=O)O)[C@@H](C)CC)[C@@H](C)CC)C(C)C)[C@@H](C)CC [SA-5] (H-RVIRVVQRACRAIRHIVRRIRQGLRRIL-OH; N-terminus and C-terminus assumed) the MBC (Pseudomonas aeruginosa; [3]) was 1 µM, the MBC (Pseudomonas aeruginosa; 150 mM NaCl (physiologic)) was 1 µM (≈ 3.46 µg/mL) and the MBC (Staphylococcus aureus; [3]) was 1000 nM.
Molecule “RRVVRRVRRVVRRVVRVVRRVVRRVRRVVRRVVRVVRRVVRR [LBU-3.5]” has an MBC (Pseudomonas aeruginosa; 150 mM NaCl (physiologic)) of 0.4 µM.
Work on “RVVRVVRRVVRRVRRVVRRVVRVVRRVVRRVRRVVRRVVRVVRRVVRR [LBU-4]” yielded an MBC (Staphylococcus aureus; [3]) of 800 nM and an MBC (Staphylococcus aureus; 150 mM NaCl (physiologic)) of 800 nM.
CC(C)[C@H](N)C(=O)N[C@@H](CCCNC(=N)N)C(=O)N[C@@H](CCCNC(=N)N)C(=O)N[C@H](C(=O)N[C@H](C(=O)N[C@@H](CCCNC(=N)N)C(=O)N[C@@H](CCCNC(=N)N)C(=O)N[C@H](C(=O)N[C@H](C(=O)N[C@@H](CCCNC(=N)N)C(=O)N[C@H](C(=O)N[C@H](C(=O)N[C@@H](CCCNC(=N)N)C(=O)N[C@@H](CCCNC(=N)N)C(=O)N[C@H](C(=O)N[C@H](C(=O)N[C@@H](CCCNC(=N)N)C(=O)N[C@@H](CCCNC(=N)N)C(=O)N[C@H](C(=O)N[C@@H](CCCNC(=N)N)C(=O)N[C@@H](CCCNC(=N)N)C(=O)N[C@H](C(=O)N[C@H](C(=O)N[C@@H](CCCNC(=N)N)C(=O)N[C@@H](CCCNC(=N)N)C(=O)N[C@H](C(=O)N[C@H](C(=O)N[C@@H](CCCNC(=N)N)C(=O)N[C@H](C(=O)N[C@H](C(=O)N[C@@H](CCCNC(=N)N)C(=O)N[C@@H](CCCNC(=N)N)C(=O)N[C@H](C(=O)N[C@H](C(=O)N[C@@H](CCCNC(=N)N)C(=O)N[C@@H](CCCNC(=N)N)C(=O)O)C(C)C)C(C)C)C(C)C)C(C)C)C(C)C)C(C)C)C(C)C)C(C)C)C(C)C)C(C)C)C(C)C)C(C)C)C(C)C)C(C)C)C(C)C)C(C)C)C(C)C [LBU-3] (H-VRRVVRRVVRVVRRVVRRVRRVVRRVVRVVRRVVRR-OH; N-terminus and C-terminus assumed) showed an MBC (Staphylococcus aureus; [3]) of 1500 nM and an MBC (Staphylococcus aureus; 150 mM NaCl (physiologic)) of 1500 nM (≈ 6.92 µg/mL).
“LL37: human cathelicidin, processed form a 37-amino acid amphiphilic α-helical cationic host derived antimicrobial peptide (LLGDFFRKSKEKIGKEFKRIVQRIKDFLRNLVPRTES; Antibacterial peptide LL-37; UniProt P49913 134-170, looked up) [reference compound]” was tested, and the “P. aeruginosa killing, influence of NaCl” value (Pseudomonas aeruginosa; low salt vs physiologic (150 mM) NaCl) was “not affected by NaCl inclusion”.
In the case of CC(C)[C@H](NC(=O)[C@H](Cc1c[nH]c2ccccc12)NC(=O)[C@H](CCCNC(=N)N)NC(=O)[C@H](CCCNC(=N)N)NC(=O)[C@@H](NC(=O)[C@@H](NC(=O)[C@H](CCCNC(=N)N)NC(=O)[C@@H](NC(=O)[C@@H](NC(=O)[C@@H](N)CCCNC(=N)N)C(C)C)C(C)C)C(C)C)C(C)C)C(=O)N[C@@H](CCCNC(=N)N)C(=O)N[C@@H](CCCNC(=N)N)C(=O)O [WLBU-1] (H-RVVRVVRRWVRR-OH; N-terminus and C-terminus assumed), the MBC (Staphylococcus aureus; [3]) is reported as 30,000 nanomolar and the MBC (Staphylococcus aureus; 150 mM NaCl (physiologic)) is reported as 10,000 nanomolar.
